For one data set, the system named is Kunming mice. Description: toxicity study in mice, single intraperitoneal injection, 7 days observation. The format is in vivo. Conditions: 10 mg/kg intraperitoneally once (100 times the dose for animal model), observed 7 days. The protocol:
18∼20 g Kunming mice were selected, and divided into 4 groups, 8 male mice and 8 female mice for each group. The lyophilized powders of scorpion active polypeptides ADMR-011, ADMR-016, ADMR-019, ADMR-023 and ADMR-028 were dissolved with normal saline respectively, and the 3 groups of mice were injected intraperitoneally once respectively with polypeptide solution at a dose of 10 mg/kg (100 times of the dose for animal model), and the fourth group were injected with equivalent amount of normal saline as control.
After the administration, the respiration, motor and heartbeat in animals of all the groups were all normal, without significant abnormal reaction. 7 days after the administration, all the animals were conducted gross anatomy to observe the volume, color and texture of the main organs (heart, liver, spleen, lung, and kidney), and there was no macroscopic lesion. There were no significant difference between the 3 administration groups and the normal saline group.

The subject of another data set is rheumatoid arthritis. Description: pristane-induced rheumatoid arthritis in SD rats, joint score and hind foot plantar swelling. Type of data set: in vivo. The arrangement: key to Score of joint: clinical score 1-4: 1 joint red/swollen=1 ... severe whole-limb arthritis=4. Conditions: x±s, n=10; for Score of joint: arthritis rats, polypeptides 100 µg·kg^-1 (methotrexate 1.75 µg·kg^-1) subcutaneously once every day, score 1-4; for The swelling degree after the inflammation: volume difference of hind foot before and after the modeling. Here is the method:
[…] Female (♀) specific pathogen free (SPF) inbred line SD rats (Wuhan University Laboratory Animal Center), body weight 150±10 g, were selected, and pristane was injected intradermally at the base of the tail of rats in experimental groups at a dose of 0.2 ml/rat, after they were acclimatized in a clean-grade environment for 1 week. Rheumatoid arthritis appeared after the rats were raised for only 2 weeks.
The rats having arthritis were randomized into: normal control group (negative control group), model negative control group (model rat + normal saline), model positive control group (model rat + methotrexate), administration group A (model rat + ADMR-011 polypeptide), administration group B (model rat + ADMR-016 polypeptide), administration group C (model rat + ADMR-019 polypeptide), administration group D (model rat + ADMR-023 polypeptide), and administration group E (model rat + ADMR-028 polypeptide), 10 rats for each group. The administration groups were injected subcutaneously at a dose of 100 µg·kg^-1, once every day in the morning, and administered continuously; the normal control group and the model negative control group were injected subcutaneously with equivalent amount of normal saline; and the model positive control group were injected subcutaneously with methotrexate (MTX) at a dose of 1.75 µg·kg^-1, once every day, and administered continuously.
The highest clinical score for each animal was recorded, and the average value of them was taken to be the average clinical score. The scoring criteria were: one joint of a rat was red and swollen, 1 point; two joints of a rat were red and swollen, 2 points; all the joints of a rat were red and swollen, 3 points; severe arthritis in the entire limb of a rat, 4 points. Table 2. Arthritis scores for rats of various experimental groups (-x±s)
From day 8 of the experiment, the hind foot plantar volume of the rat was measured and recorded every other day for 21 consecutive days, and the swelling degree (mL) was calculated according to the volume difference before and after the modeling. Table 3. The swelling degree of rats in various experimental groups (-x±s)

A further data set has as its system Wistar rat EAE model. Description: EAE (multiple sclerosis) model in Wistar rats induced by GPSCH-CFA, clinical scoring. The format is in vivo. Conditions: 100 µg·kg^-1 subcutaneously once every day, x±s, n=10, score 0-5. From the text:
Experimental animals: female inbred line Wistar rats (6∼8 week old, body weigh 150±10 g) and guinea pigs (300∼400 g, purchased from Wuhan University Laboratory Animal Center) were selected.
Formulating a mixed emulsion of whole spinal cord homogenate - Freund's complete adjuvant (GPSCH-CFA): a guinea pig was executed, and the spinal cord was rapidly removed, and prepared into 50% PBS homogenate by a ultrasonic disruptor (Sonics & Materials Inc, America), which was mixed with equal amount of Freund's complete adjuvant (BCG vaccine 10 mg/ml), and was pushed back and forth with syringes until forming a water-in-oil emulsion.
Wistar rat EAE model induced by EAE: GPSCH-CFA emulsion was injected intradermally into the foot pads of both the hind legs of Wistar rats, or simultaneously injected intradermally about 1×10^10 pertussis vaccine. The rats were weighed every day, and observed for their neurological symptoms. Experimental autoimmune encephalomyelitis appeared after the rats had been raised for 2 weeks.
The rats with experimental autoimmune encephalomyelitis (EAE) were divided into […] groups randomly: normal control group (negative control group), model control group (model rats + normal saline), administration group A (model rats + ADMR-011 polypeptide), administration group B (model rats + ADMR-016 polypeptide), administration group C (model rats + ADMR-019 polypeptide), administration group D (model rats + ADMR-023 polypeptide), and administration group E (model rats + ADMR-028 polypeptide), 10 rats for each group. For the administration groups, polypeptides ADMR-011, ADMR-016, ADMR-019, ADMR-023 and ADMR-028 were injected subcutaneously respectively at a dose of 100 µg·kg^-1, once every day in the morning. For the normal control group and the model control group, equivalent amount of normal saline was injected subcutaneously, and administered continuously. […] The highest clinical score for each animal was recorded, and the average value of them was taken to be the average clinical score.
The scoring criteria were: without any clinical symptom, 0 point; disappearance of tension in the tail, and observable mild awkward gait, 1 point; weakness in both the hind limbs, which can recover after passive body flipping, 2 points; paralysis in both the hind limbs, which can not recover after passive body flipping, 3 points; tetraplegia accompanied by incontinence of urine and feces, 4 points; moribund state or death, 5 points. Table 1. Scores for rats of various experimental groups in the EAE model (-x±s)

The next data set concerns the target T1, potassium channel Kv1.3 (Homo sapiens, UniProt P22001).
T1 construct: expressed in transfected cells; host or cells: COS-7 cells, selected with 0.8 mg/mL geneticin
Description: whole-cell patch clamp, inhibition of Kv1.3 current in transfected COS-7 cells. The format is cell-based. Conditions: potassium channel Kv1.3 in COS-7 cells, read-out: polypeptide concentrations that inhibit the current by half (IC50 value). The protocol: COS-7 cells were cultured in a DMEM medium containing 10% fetal calf serum, at 37° C, 5% CO2. The recombinant plasmids of potassium channel Kv1.3 were transfected by using a Sofast™ transfection kit, and the transfected cells were selectively cultured in a medium containing 0.8 mg/mL geneticin. The pharmacological activities of scorpion active polypeptides ADMR-011, ADMR-016, ADMR-019, ADMR-023 and ADMR-028 were tested and analyzed by using an instrument of whole-cell patch clamp (EPC-10 dual-channel patch clamp amplifier HEKA, Elektronik, Lambrecht, Germany). The setting of the experimental parameters, the collecting of data, and the applying of stimulus were all controlled by Pulse software (Elektronik, Lambrecht, Germany). The filter of the instrument was set to be 10 kHz (Bessel), and the electrode impedance was 2∼5 MΩ. After the formation of giga-seal (1∼5 GΩ) between the electrode and cell membrane, an automatic c-fast was performed, and the membrane was broken by slightly applying negative pressure, then an automatic c-slow was performed. At a holding potential of -70 mV, depolarizing pulses, incrementing in 10 mV steps, with a step width of 80 ms , were given to stimulate from -60 mV to +50 mV, and the condition of current was observed. The polypeptides ADMR-011, ADMR-016 and ADMR-019 were accurately perfused, which was achieved by MPS-2 (INBIO Inc, Wuhan, China) perfusing system. After dissolving the three scorpion active polypeptides, they were applied by spraying via DAD Drug Application System (ALA), and the tip of the tube for drug application was about 100 µm away from the cell being recorded.
It can be known from Figure 16 to Figure 20 that, the pharmacological activity of ADMR-011 on potassium channel Kvl.3 was 91 pM, the pharmacological activity of ADMR-016 on potassium channel Kvl.3 was 2.58 nM, the pharmacological activity of ADMR-019 on potassium channel Kv1.3 was 1.41 nM, and the pharmacological activity of ADMR-023 and ADMR-028 on potassium channel Kvl.3 were 0.49 nM and 0.65 nM, respectively. Therefore, they are polypeptides with potent activity that are currently found internationally.
In general terms: In patch-clamp work, channel activity is measured electrically.

Bridge positions count the residues as written; N and C are the ends. Peptide text beside a SMILES is read from it.

T1 sequence (P22001 whole entry): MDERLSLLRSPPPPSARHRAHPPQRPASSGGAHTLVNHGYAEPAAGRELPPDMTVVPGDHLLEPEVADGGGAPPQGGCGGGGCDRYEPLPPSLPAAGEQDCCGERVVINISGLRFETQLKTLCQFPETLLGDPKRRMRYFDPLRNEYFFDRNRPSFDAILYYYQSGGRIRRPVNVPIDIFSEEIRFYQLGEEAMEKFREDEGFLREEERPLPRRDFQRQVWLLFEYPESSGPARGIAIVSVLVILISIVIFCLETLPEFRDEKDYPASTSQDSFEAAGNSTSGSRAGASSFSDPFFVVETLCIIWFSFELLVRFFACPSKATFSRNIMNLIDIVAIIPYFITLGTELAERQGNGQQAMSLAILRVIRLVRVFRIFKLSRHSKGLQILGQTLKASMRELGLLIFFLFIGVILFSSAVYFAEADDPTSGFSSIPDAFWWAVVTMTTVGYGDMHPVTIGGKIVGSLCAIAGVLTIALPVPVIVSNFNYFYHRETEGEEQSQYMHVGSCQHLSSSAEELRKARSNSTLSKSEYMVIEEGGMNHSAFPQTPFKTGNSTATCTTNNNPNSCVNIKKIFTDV

Take `CC[C@H](C)[C@H](NC(=O)CNC(=O)[C@@H](N)C(C)C)C(=O)N[C@@H](CC(N)=O)C(=O)N[C@H](C(=O)N[C@@H](CCC(N)=O)C(=O)N[C@H]1CSSC[C@@H]2NC(=O)[C@H](CCC(N)=O)NC(=O)CNC(=O)[C@H](Cc3ccccc3)NC(=O)[C@H](CCCNC(=N)N)NC(=O)[C@H](CCSC)NC(=O)CNC(=O)[C@H](C)NC(=O)[C@H](CC(=O)O)NC(=O)[C@H](CCCCN)NC(=O)[C@@H]3CSSC[C@@H](C(=O)N[C@H](C(=O)N4CCC[C@H]4C(=O)N[C@@H](CCCCN)C(=O)O)[C@@H](C)O)NC(=O)[C@H](CC(=O)O)NC(=O)[C@H](CSSC[C@H](NC(=O)[C@H](CCC(N)=O)NC(=O)[C@H](CCCNC(=N)N)NC(=O)[C@H](CO)NC(=O)[C@H](Cc4c[nH]cn4)NC(=O)[C@H](CC(N)=O)NC1=O)C(=O)N[C@@H](CC(C)C)C(=O)N[C@@H](CCCCN)C(=O)N1CCC[C@H]1C(=O)N3)NC(=O)[C@H]([C@@H](C)O)NC(=O)CNC(=O)[C@H](CC(N)=O)NC(=O)[C@H]([C@@H](C)CC)NC2=O)C(C)C` [ADMR-028] (H-VGINVQCNHSRQCLKPCKDAGMRFGQCINGTCDCTPK-OH; disulfide 7-27, 13-32, 17-34 (inferred); N-terminus and C-terminus assumed): the toxicity in mice entry with Kunming mice is reported as “no significant toxicity”. For the same compound, the Score of joint in the data set on rheumatoid arthritis (10 d) was found to be 1.79±0.55; in the data set with rheumatoid arthritis (15 d), 2.11±0.45; in the data set with rheumatoid arthritis (21 d) it was 1.79±0.63. Besides, the “The swelling degree after the inflammation” value in the data set on rheumatoid arthritis (d8) is 0.037 ± 0.013 mL; in the data set on rheumatoid arthritis (d15) it was 0.28 ± 0.05 mL; with rheumatoid arthritis (d22) it was 0.38 ± 0.13 mL; with rheumatoid arthritis (d28) it was 0.31 ± 0.14 mL. Besides, the Average clinical scores with Wistar rat EAE model (8 d) was determined as 0.49±0.12; in the data set on Wistar rat EAE model (10 d) it was 0.95±0.22; with Wistar rat EAE model (12 d), 1.09±0.37; with Wistar rat EAE model (14 d), 1.13±0.29. Besides, the IC50 at potassium channel Kv1.3 was 650 pM.

Take `CC[C@H](C)[C@@H]1NC(=O)CNC(=O)[C@H](CCC(=O)O)NC(=O)[C@@H]2CSSC[C@@H](C(=O)N[C@@H](Cc3ccc(O)cc3)C(=O)N[C@@H](CCCNC(=N)N)C(=O)O)NC(=O)[C@H](C(C)C)NC(=O)[C@@H]3CSSC[C@H](NC(=O)[C@H](CCC(=O)O)NC(=O)[C@H](CO)NC(=O)[C@H](CO)NC(=O)CNC(=O)[C@H](CC(N)=O)NC(=O)[C@@H](NC(=O)[C@H](CCC(=O)O)NC(=O)[C@H](CCCCN)NC(=O)[C@H](CO)NC(=O)[C@@H](NC(=O)[C@H](Cc4ccc(O)cc4)NC(=O)[C@@H](NC(=O)[C@@H](N)CCC(N)=O)[C@@H](C)CC)[C@@H](C)O)CSSC[C@H](NC(=O)[C@H](CCCCN)NC(=O)CNC(=O)[C@H](CO)NC(=O)[C@H](CCCNC(=N)N)NC(=O)[C@H](CCCCN)NC(=O)CNC(=O)[C@H]([C@@H](C)O)NC1=O)C(=O)N[C@@H]([C@@H](C)CC)C(=O)N[C@@H](CC(N)=O)C(=O)N[C@@H](CCCCN)C(=O)N[C@@H](CCCCN)C(=O)N3)C(=O)N[C@@H](Cc1ccc(O)cc1)C(=O)N[C@@H](CO)C(=O)N[C@@H](Cc1c[nH]cn1)C(=O)N2` [ADMR-011] (H-QIYTSKECNGSSECYSHCEGITGKRSGKCINKKCVCYR-OH; disulfide 8-29, 14-34, 18-36 (inferred); N-terminus and C-terminus assumed): the toxicity in mice entry in the data set with Kunming mice is “no significant toxicity”. Moreover, the Score of joint is listed as 1.63±0.57 with rheumatoid arthritis (10 d), 2.07±0.65 with rheumatoid arthritis (15 d) and 1.62±0.59 in the data set on rheumatoid arthritis (21 d). The “The swelling degree after the inflammation” value in the data set on rheumatoid arthritis (d8) turned out to be 0.041 ± 0.012 mL; in the data set on rheumatoid arthritis (d15) it was 0.21 ± 0.06 mL; in the data set on rheumatoid arthritis (d22), 0.29 ± 0.09 mL; with rheumatoid arthritis (d28), 0.24 ± 0.13 mL. Further, the Average clinical scores came out at 0.47±0.18 in the data set with Wistar rat EAE model (8 d), 0.75±0.21 in the data set with Wistar rat EAE model (10 d), 0.83±0.35 in the data set on Wistar rat EAE model (12 d) and 0.95±0.37 in the data set with Wistar rat EAE model (14 d). For the same compound, on potassium channel Kv1.3, the IC50 amounted to 91 pM.

For the origin of these results see EP2653477B1, “SCORPION ACTIVE PEPTIDES AND PREPARATION METHODS AND APPLICATIONS THEREOF” (Wuhan More Biotechnology Co., Ltd., priority 2010, dated 2012).
